# Source: PubChem BioAssay (NCI)
#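 Five compound concentrations were applied to cells in 96-well plates for 48 hours; endpoints were derived by simple linear interpolation of the resulting dose-response curve. At the TGI there is no net growth.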
# Experiments:
# Assay in all cases: NCI tumour cell line growth inhibition, 48 h
# 786-0 renal = tested on: 786-0 renal
# A498 renal = tested on: A498 renal
# A549 NSCLC = tested on: A549 NSCLC
# ACHN renal = tested on: ACHN renal
# BT-549 breast = tested on: BT-549 breast
# CAKI-1 renal = tested on: CAKI-1 renal
# CCRF-CEM leukemia = tested on: CCRF-CEM leukemia
# COLO 205 colon = tested on: COLO 205 colon
# DU-145 prostate = tested on: DU-145 prostate
# HCC-2998 colon = tested on: HCC-2998 colon
# HCT-116 colon = tested on: HCT-116 colon
# HCT-15 colon = tested on: HCT-15 colon
# HL-60(TB) leukemia = tested on: HL-60(TB) leukemia
# HOP-62 NSCLC = tested on: HOP-62 NSCLC
# HOP-92 NSCLC = tested on: HOP-92 NSCLC
# HS 578T breast = tested on: HS 578T breast
# HT29 colon = tested on: HT29 colon
# IGROV1 ovarian = tested on: IGROV1 ovarian
# K-562 leukemia = tested on: K-562 leukemia
# KM12 colon = tested on: KM12 colon
# LOX IMVI melanoma = tested on: LOX IMVI melanoma
# M14 melanoma = tested on: M14 melanoma
# MALME-3M melanoma = tested on: MALME-3M melanoma
# MCF7 breast = tested on: MCF7 breast
# MDA-MB-231 breast = tested on: MDA-MB-231 breast
# MDA-MB-435 = tested on: MDA-MB-435
# MDA-N = tested on: MDA-N
# MOLT-4 leukemia = tested on: MOLT-4 leukemia
# NCI-H226 lung = tested on: NCI-H226 lung
# NCI-H23 lung = tested on: NCI-H23 lung
# NCI-H460 lung = tested on: NCI-H460 lung
# NCI-H522 lung = tested on: NCI-H522 lung
# NCI/ADR-RES ovarian = tested on: NCI/ADR-RES ovarian
# OVCAR-3 ovarian = tested on: OVCAR-3 ovarian
# OVCAR-4 ovarian = tested on: OVCAR-4 ovarian
# OVCAR-5 ovarian = tested on: OVCAR-5 ovarian
# OVCAR-8 ovarian = tested on: OVCAR-8 ovarian
# PC-3 prostate = tested on: PC-3 prostate
# RPMI-8226 leukemia = tested on: RPMI-8226 leukemia
# RXF 393 renal = tested on: RXF 393 renal
# SF-268 CNS = tested on: SF-268 CNS
# SF-295 CNS = tested on: SF-295 CNS
# SF-539 CNS = tested on: SF-539 CNS
# SK-MEL-2 melanoma = tested on: SK-MEL-2 melanoma
# SK-MEL-28 melanoma = tested on: SK-MEL-28 melanoma
# SK-MEL-5 melanoma = tested on: SK-MEL-5 melanoma
# SK-OV-3 ovarian = tested on: SK-OV-3 ovarian
# SNB-19 CNS = tested on: SNB-19 CNS
# SNB-75 CNS = tested on: SNB-75 CNS
# SW-620 colon = tested on: SW-620 colon
# T-47D breast = tested on: T-47D breast
# TK-10 renal = tested on: TK-10 renal
# U251 CNS = tested on: U251 CNS
# UACC-257 melanoma = tested on: UACC-257 melanoma
# UACC-62 melanoma = tested on: UACC-62 melanoma
# UO-31 renal = tested on: UO-31 renal
# EKVX NSCLC = tested on: EKVX NSCLC
# SN12C renal = tested on: SN12C renal
structure (smiles),measurement,setting,value
COc1ccc(OC)c2c1C(=O)C(=O)C(Cl)=C2O,TGI,786-0 renal,> 100 µM
same,TGI,A498 renal,> 100 µM
same,TGI,A549 NSCLC,> 100 µM
same,TGI,ACHN renal,> 100 µM
same,TGI,BT-549 breast,> 100 µM
same,TGI,CAKI-1 renal,> 100 µM
same,TGI,CCRF-CEM leukemia,> 100 µM
same,TGI,COLO 205 colon,> 100 µM
same,TGI,DU-145 prostate,> 100 µM
same,TGI,HCC-2998 colon,> 100 µM
same,TGI,HCT-116 colon,> 100 µM
same,TGI,HCT-15 colon,> 100 µM
same,TGI,HL-60(TB) leukemia,> 100 µM
same,TGI,HOP-62 NSCLC,> 100 µM
same,TGI,HOP-92 NSCLC,> 100 µM
same,TGI,HS 578T breast,> 100 µM
same,TGI,HT29 colon,> 100 µM
same,TGI,IGROV1 ovarian,> 100 µM
same,TGI,K-562 leukemia,> 100 µM
same,TGI,KM12 colon,> 100 µM
same,TGI,LOX IMVI melanoma,> 100 µM
same,TGI,M14 melanoma,> 100 µM
same,TGI,MALME-3M melanoma,> 100 µM
same,TGI,MCF7 breast,> 100 µM
same,TGI,MDA-MB-231 breast,> 100 µM
same,TGI,MDA-MB-435,> 100 µM
same,TGI,MDA-N,> 100 µM
same,TGI,MOLT-4 leukemia,> 100 µM
same,TGI,NCI-H226 lung,> 100 µM
same,TGI,NCI-H23 lung,> 100 µM
same,TGI,NCI-H460 lung,> 100 µM
same,TGI,NCI-H522 lung,> 100 µM
same,TGI,NCI/ADR-RES ovarian,> 100 µM
same,TGI,OVCAR-3 ovarian,> 100 µM
same,TGI,OVCAR-4 ovarian,> 100 µM
same,TGI,OVCAR-5 ovarian,> 100 µM
same,TGI,OVCAR-8 ovarian,> 100 µM
same,TGI,PC-3 prostate,> 100 µM
same,TGI,RPMI-8226 leukemia,> 100 µM
same,TGI,RXF 393 renal,> 100 µM
same,TGI,SF-268 CNS,> 100 µM
same,TGI,SF-295 CNS,> 100 µM
same,TGI,SF-539 CNS,> 100 µM
same,TGI,SK-MEL-2 melanoma,> 100 µM
same,TGI,SK-MEL-28 melanoma,> 100 µM
same,TGI,SK-MEL-5 melanoma,> 100 µM
same,TGI,SK-OV-3 ovarian,> 100 µM
same,TGI,SNB-19 CNS,> 100 µM
same,TGI,SNB-75 CNS,> 100 µM
same,TGI,SW-620 colon,> 100 µM
same,TGI,T-47D breast,> 100 µM
same,TGI,TK-10 renal,> 100 µM
same,TGI,U251 CNS,> 100 µM
same,TGI,UACC-257 melanoma,> 100 µM
same,TGI,UACC-62 melanoma,> 100 µM
same,TGI,UO-31 renal,> 100 µM
Cc1cc(O)c(/C=N/c2nc(-c3ccc([N+](=O)[O-])cc3)cs2)c(=O)o1,TGI,786-0 renal,> 100 µM
same,TGI,A498 renal,> 100 µM
same,TGI,A549 NSCLC,> 100 µM
same,TGI,ACHN renal,> 100 µM
same,TGI,BT-549 breast,> 100 µM
same,TGI,CAKI-1 renal,> 100 µM
same,TGI,CCRF-CEM leukemia,> 100 µM
same,TGI,COLO 205 colon,> 100 µM
same,TGI,DU-145 prostate,> 100 µM
same,TGI,EKVX NSCLC,> 100 µM
same,TGI,HCC-2998 colon,> 100 µM
same,TGI,HCT-116 colon,> 100 µM
same,TGI,HCT-15 colon,> 100 µM
same,TGI,HL-60(TB) leukemia,75 µM
same,TGI,HOP-62 NSCLC,> 100 µM
same,TGI,HOP-92 NSCLC,> 100 µM
same,TGI,HS 578T breast,> 100 µM
same,TGI,HT29 colon,> 100 µM
same,TGI,IGROV1 ovarian,> 100 µM
same,TGI,K-562 leukemia,> 100 µM
same,TGI,KM12 colon,> 100 µM
same,TGI,LOX IMVI melanoma,> 100 µM
same,TGI,M14 melanoma,> 100 µM
same,TGI,MCF7 breast,> 100 µM
same,TGI,MDA-MB-231 breast,> 100 µM
same,TGI,MDA-MB-435,> 100 µM
same,TGI,MDA-N,> 100 µM
same,TGI,MOLT-4 leukemia,> 100 µM
same,TGI,NCI-H226 lung,> 100 µM
same,TGI,NCI-H23 lung,> 100 µM
same,TGI,NCI-H460 lung,> 100 µM
same,TGI,NCI-H522 lung,> 100 µM
same,TGI,NCI/ADR-RES ovarian,> 100 µM
same,TGI,OVCAR-4 ovarian,> 100 µM
same,TGI,OVCAR-5 ovarian,> 100 µM
same,TGI,OVCAR-8 ovarian,> 100 µM
same,TGI,PC-3 prostate,> 100 µM
same,TGI,RPMI-8226 leukemia,> 100 µM
same,TGI,RXF 393 renal,> 100 µM
same,TGI,SF-268 CNS,> 100 µM
same,TGI,SF-295 CNS,> 100 µM
same,TGI,SF-539 CNS,> 100 µM
same,TGI,SK-MEL-2 melanoma,> 100 µM
same,TGI,SK-MEL-5 melanoma,> 100 µM
same,TGI,SK-OV-3 ovarian,> 100 µM
same,TGI,SN12C renal,> 100 µM
same,TGI,SNB-19 CNS,> 100 µM
same,TGI,SNB-75 CNS,> 100 µM
same,TGI,SW-620 colon,> 100 µM
same,TGI,T-47D breast,> 100 µM
same,TGI,TK-10 renal,> 100 µM
same,TGI,U251 CNS,> 100 µM
same,TGI,UACC-257 melanoma,> 100 µM
same,TGI,UACC-62 melanoma,> 100 µM
same,TGI,UO-31 renal,> 100 µM
